Experimental data from ChEMBL document CHEMBL3621144, “Small-Molecule Allosteric Modulators of the Protein Kinase PDK1 from Structure-Based Docking” (J Med Chem, 2015).
Activity calls are given as the source filed them. No cut-off for these calls is given here.

How the values were obtained:
[1] = target: T1, 3-phosphoinositide-dependent protein kinase 1 (Homo sapiens, UniProt O15530); assay: Displacement of PIFtide from human PDK1 PIF pocket after 1 hr by fluorescence polarization assay
T1 sequence (O15530 whole entry): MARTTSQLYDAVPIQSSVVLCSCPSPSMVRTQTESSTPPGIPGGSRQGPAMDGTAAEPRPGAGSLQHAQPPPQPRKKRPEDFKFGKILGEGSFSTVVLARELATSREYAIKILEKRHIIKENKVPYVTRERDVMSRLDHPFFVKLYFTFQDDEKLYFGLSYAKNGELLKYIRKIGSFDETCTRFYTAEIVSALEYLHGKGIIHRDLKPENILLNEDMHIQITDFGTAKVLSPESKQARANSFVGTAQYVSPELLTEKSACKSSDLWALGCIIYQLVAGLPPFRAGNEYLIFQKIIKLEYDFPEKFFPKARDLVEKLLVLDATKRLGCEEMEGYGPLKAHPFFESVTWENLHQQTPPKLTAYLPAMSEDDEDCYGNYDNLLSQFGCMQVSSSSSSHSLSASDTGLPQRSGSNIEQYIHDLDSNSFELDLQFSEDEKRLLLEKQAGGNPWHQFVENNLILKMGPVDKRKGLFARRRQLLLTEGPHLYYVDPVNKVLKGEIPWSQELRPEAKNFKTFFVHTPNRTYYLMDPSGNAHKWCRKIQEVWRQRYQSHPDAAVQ

[2] = Induction of colloidal aggregates formation in Tris/NaCl/MgCl2/CHAPS/beta-mercaptoethanol buffer at 200 uM by dynamic light scattering method; assay type: physicochemical
[3] = Induction of colloidal aggregates formation in Tris/NaCl/Pluronic F-68 buffer at 300 uM by dynamic light scattering method; assay type: physicochemical
[4] = target: Cruzipain (Trypanosoma cruzi) (UniProt P25779); assay: Inhibition of Trypanosoma cruzi Cruzain using Z-FR-AMC as substrate preincubated for 5 mins followed by substrate addition measured for 5 mins by spectrofluorimetric analysis
Cruzipain (Trypanosoma cruzi), sequence (P25779 123-467 limits assumed): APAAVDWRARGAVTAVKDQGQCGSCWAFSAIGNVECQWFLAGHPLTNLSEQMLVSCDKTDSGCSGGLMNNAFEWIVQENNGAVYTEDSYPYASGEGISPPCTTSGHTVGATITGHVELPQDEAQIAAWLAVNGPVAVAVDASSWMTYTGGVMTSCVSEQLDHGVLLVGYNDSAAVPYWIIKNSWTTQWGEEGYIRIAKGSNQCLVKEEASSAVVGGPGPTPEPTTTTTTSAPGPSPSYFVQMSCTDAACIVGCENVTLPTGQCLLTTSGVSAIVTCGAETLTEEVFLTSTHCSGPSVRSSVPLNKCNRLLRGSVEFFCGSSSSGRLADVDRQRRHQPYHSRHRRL

[5] = target: T1, 3-phosphoinositide-dependent protein kinase 1; assay: Activation of human PDK1 catalytic activity using T308tide as substrate after 1 hr by phosphor imager analysis in presence of [gamma-32P]-ATP relative to control
[6] = Induction of colloidal aggregates formation in Tris/NaCl/Pluronic F-68 buffer at 100 uM by dynamic light scattering method; assay type: physicochemical

Row | Kd [1] [µM] | Compound | further results
1 | > 200 | O=P(O)(O)[C@H](NCCc1ccc(F)cc1)c1ccc(F)cc1 | 
2 | 110 | Cc1cccc(OCCSc2nc3ccccc3n2CC(=O)O)c1C | 
3 | > 200 | O=C(O)Cn1c(SCc2ccccc2)nc2ccccc21 | 
4 | 120 | O=C(O)CSc1nc2ccccc2n1CCOc1ccccc1 | 
5 | 74 | Cc1ccccc1OCCSc1nc2ccccc2n1CCC(=O)O | 
6 | 83 | C[C@@H](CN[C@H](c1ccc(F)c(F)c1)P(=O)(O)O)c1ccccc1 | 
7 | 150 | C[C@@H](CN[C@H](c1ccccc1)P(=O)(O)O)c1ccccc1 | 
8 | > 200 | COc1ccccc1OCCSc1nc2ccccc2n1CC(=O)O | 
9 | > 200 | O=C(O)Cn1c(SCCOc2ccccc2)nc2ccccc21 | 
10 | > 200 | O=C(O)C/C(=C/c1cccc(C(F)(F)F)c1)c1nc2ccccc2o1 | 
11 | > 200 | C[C@H](CN[C@H](c1ccc(F)cc1)P(=O)(O)O)c1ccccc1 | 
12 | 120 | O=C(O)Cn1c(SCc2cccc3ccccc23)nc2ccccc21 | 
13 | 50 | Cc1ccccc1OCCSc1nc2ccccc2n1CC(=O)O | 
14 | 75 | Cc1cccc(OCCn2c(SCC(=O)O)nc3ccccc32)c1 | 
15 | 39.4 | O=P(O)(O)[C@H](NC[C@@H]1CCCc2ccccc21)c1ccc(F)cc1 | Activity [2]: Not Active; Activity [3]: Not Active; inhibition [4]: inactive; EC50 [5]: 50 µM
16 | 39.1 | Cc1ccc(OCCSc2nc3ccccc3n2CC(=O)O)c(C)c1 | Activity [6]: Not Active; Activity [2]: Not Active; Activity [3]: Not Active; inhibition [4]: inactive; EC50 [5]: 40 µM
17 | > 200 | O=C(O)Cn1c(SCCOc2ccccc2F)nc2ccccc21 | 
